Consider five molecules from US20260308186A1, “STAT DEGRADERS AND USES THEREOF” (Recludix Pharma, Inc., priority 2023, published 2026).

For assay [1], the target named is T1, pSTAT3 (Homo sapiens, UniProt P40763).
T1 construct: pY705-STAT3 MSD read-out
Description: MSD-pSTAT-PBMC Assay, pSTAT3 (IL-6 stimulated PBMC). It is filed as cell-based. As to conditions: read-out: pSTAT3 IC50, compound 3 hrs, then 10 ng/mL IL-6 for 10 min, pY705-STAT3. The source says:
Cryopreserved Peripheral Blood Mononuclear Cells (PBMC) are from AllCells. Recombinant Human IL-4 and IL-6 are from Peprotech. Mouse monoclonal anti-STAT3 antibody, rabbit monoclonal anti-pY705-STAT3 antibody, rabbit monoclonal Anti-pY641-STAT6 antibody, and lysis buffer are from Cell Signaling Technology (CST). Mouse monoclonal anti-STAT6 antibody is from BioLegend. Assay plates, blocker, and anti-rabbit secondary antibody are from Meso Scale Discovery (MSD).
Cryopreserved PBMCs were thawed out and allowed to recover overnight in IMDM+10% heat-inactivated FBS prior to plating 50,000 (STAT3) or 25,000 (STAT6) cells per well in 96-well U-bottom tissue culture plates. Cells were treated with compound for 3 hrs. then stimulated with 10 ng/mL IL-6 (STAT3) or 1 ng/mL IL-4 (STAT6) for 10 min. Cells were then spun down and washed with ice-cold PBS prior to lysing the cell pellet with 1× lysis buffer (CST) with 1×HALT protease and phosphatase inhibitor cocktail (Thermo). Lysates were transferred to and incubated overnight at 4° C. with shaking in QuickPlex 96-well high bind assay plates (MSD) pre-coated overnight with 30 μL per well of 0.6 μg/mL mouse monoclonal anti-STAT3 antibody (STAT3) or 2 μg/mL mouse monoclonal anti-STAT6 antibody (STAT6) in 1×PBS, and pre-blocked for 1 hour with 3% Blocker-A (MSD). Captured protein in the assay plates were then washed and probed with 25 μL per well of 0.25 μg/ml rabbit monoclonal anti-pY705-STAT3 antibody (STAT3) or 0.18 μg/ml rabbit monoclonal Anti-pY641-STAT6 antibody (STAT6) in 1% Blocker-A for 1 hour at room temperature with shaking, then washed and probed with 25 ul per well of 1 ug/ml Sulfo-TAG Labeled Goat Anti-Rabbit Antibody (MSD) in 1% Blocker-A for 1 hour at room temperature with shaking. Assay plates were then washed and 150 μL of 1× Read Buffer-T (MSD) was added to each well prior to reading on an SQ120 MSD Plate Reader. Assay signal from each sample was subtracted by the signal from unstimulated control wells and normalized to DMSO control wells. IC50 values were calculated using Graph Pad Prism Dose-Response Nonlinear Regression with variable slope. For both pSTAT3 and pSTAT6 A=≤100 nM; B=>100-1000 nM; C=>1000-3000 nM; and D=>3 μM.

In assay [2] the target is T2, pSTAT6 (Homo sapiens, UniProt P42226).
T2 construct: pY641-STAT6 MSD read-out
T2 sequence (P42226 1-847): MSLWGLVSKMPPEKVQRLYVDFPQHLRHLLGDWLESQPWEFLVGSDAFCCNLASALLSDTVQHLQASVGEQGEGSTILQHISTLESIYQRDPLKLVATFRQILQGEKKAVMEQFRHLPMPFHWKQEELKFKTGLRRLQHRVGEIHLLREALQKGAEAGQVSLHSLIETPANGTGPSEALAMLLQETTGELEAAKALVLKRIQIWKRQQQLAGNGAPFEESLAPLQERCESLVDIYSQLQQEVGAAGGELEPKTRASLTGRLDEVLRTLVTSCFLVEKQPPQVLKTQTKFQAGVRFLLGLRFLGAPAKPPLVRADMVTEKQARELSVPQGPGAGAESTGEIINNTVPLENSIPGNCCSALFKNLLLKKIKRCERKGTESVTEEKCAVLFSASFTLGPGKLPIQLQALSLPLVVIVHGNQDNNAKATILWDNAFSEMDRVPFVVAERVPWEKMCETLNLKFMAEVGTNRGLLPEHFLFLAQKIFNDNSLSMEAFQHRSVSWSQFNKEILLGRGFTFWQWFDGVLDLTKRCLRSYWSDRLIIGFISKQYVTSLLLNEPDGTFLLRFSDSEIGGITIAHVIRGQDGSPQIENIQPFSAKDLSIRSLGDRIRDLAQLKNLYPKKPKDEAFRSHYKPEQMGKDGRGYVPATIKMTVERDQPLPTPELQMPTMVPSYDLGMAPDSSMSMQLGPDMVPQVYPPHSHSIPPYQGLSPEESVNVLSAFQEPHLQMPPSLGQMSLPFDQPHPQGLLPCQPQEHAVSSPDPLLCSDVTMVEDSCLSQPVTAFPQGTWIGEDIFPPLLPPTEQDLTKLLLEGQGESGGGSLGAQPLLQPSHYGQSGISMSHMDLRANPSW
Description: MSD-pSTAT-PBMC Assay, pSTAT6 (IL-4 stimulated PBMC). As to conditions: read-out: pSTAT6 IC50, compound 3 hrs, then 1 ng/mL IL-4 for 10 min, pY641-STAT6. It is filed as cell-based. Put shortly: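 Human PBMC were recovered overnight, treated 3 h with compound, then stimulated for 10 min with 10 ng/mL IL-6 (pSTAT3) or 1 ng/mL IL-4 (pSTAT6). Lysates were read by MSD sandwich immunoassay, with total STAT capture and pY705-STAT3 or pY641-STAT6 detection. Signal minus unstimulated wells was normalized to DMSO, and IC50 came from a variable-slope fit.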

T1 sequence (P40763 whole entry): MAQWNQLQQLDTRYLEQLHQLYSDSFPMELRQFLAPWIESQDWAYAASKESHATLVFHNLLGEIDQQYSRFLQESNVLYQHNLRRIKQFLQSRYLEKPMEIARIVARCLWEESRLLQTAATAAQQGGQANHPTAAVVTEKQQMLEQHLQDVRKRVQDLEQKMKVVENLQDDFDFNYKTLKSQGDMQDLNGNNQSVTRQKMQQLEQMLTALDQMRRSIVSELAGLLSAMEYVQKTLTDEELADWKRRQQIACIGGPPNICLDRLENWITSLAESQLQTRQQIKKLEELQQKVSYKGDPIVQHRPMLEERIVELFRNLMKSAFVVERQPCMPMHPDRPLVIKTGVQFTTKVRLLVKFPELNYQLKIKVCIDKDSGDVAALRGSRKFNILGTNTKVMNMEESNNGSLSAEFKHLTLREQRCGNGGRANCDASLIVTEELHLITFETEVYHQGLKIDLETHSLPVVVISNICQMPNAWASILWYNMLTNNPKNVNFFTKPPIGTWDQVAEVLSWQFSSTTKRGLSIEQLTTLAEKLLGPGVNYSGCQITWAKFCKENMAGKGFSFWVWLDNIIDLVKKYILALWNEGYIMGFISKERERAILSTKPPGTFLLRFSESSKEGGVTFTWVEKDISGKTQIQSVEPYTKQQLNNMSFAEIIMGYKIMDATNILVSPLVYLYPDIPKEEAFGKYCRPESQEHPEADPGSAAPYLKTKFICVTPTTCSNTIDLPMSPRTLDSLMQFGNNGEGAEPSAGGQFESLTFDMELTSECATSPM

With `CCCC(=O)SCCOP(=O)(OCCSC(=O)CCC)C(F)(F)c1ccc2ccc(C(=O)N[C@H]3CN(C(=O)c4n[nH]c5ccc(C)cc45)CC[C@H]4CC[C@@H](C(=O)NCCCCCCC#Cc5cccc6c5CN(C5CCC(=O)NC5=O)C6=O)N4C3=O)cc2c1` (stereo partly drawn) [Compound 10, S,S′-(((((7-(((5S,8S,10aR)-8-((8-(2-(2,6-dioxopiperidin-3-yl)-1-oxoisoindolin-4-yl)oct-7-yn-1-yl)carbamoyl)-3-(5-methyl-1H-indazole-3-carbonyl)-6-oxodecahydropyrrolo[1,2-a][1,5]diazocin-5-yl)carbamoyl)naphthalen-2-yl)difluoromethyl)phosphoryl)bis(oxy))bis(ethane-2,1-diyl)) dibutanethioate], the figures for the IC50 in assay [1] and in assay [2] were above 3 µM and below 0.1 µM, respectively.
On the same counts, the results for `CN(C(=O)[C@@H]1CC[C@@H]2CCN(C(=O)CCCCCC#Cc3cccc4c3CN(C3CCC(=O)NC3=O)C4=O)C[C@H](NC(=O)c3cc4cc(C(F)(F)P(=O)(OCOC(=O)C(C)(C)C)OCOC(=O)C(C)(C)C)ccc4[nH]3)C(=O)N21)c1ccccc1` (stereo partly drawn) [Compound 2, ((((2-(((5S,8S,10aR)-3-(8-(2-(2,6-Dioxopiperidin-3-yl)-1-oxoisoindolin-4-yl)oct-7-ynoyl)-8-(methyl(phenyl)carbamoyl)-6-oxodecahydropyrrolo[1,2-a][1,5]diazocin-5-yl)carbamoyl)-1H-indol-5-yl)difluoromethyl)phosphoryl)bis(oxy))bis(methylene) bis(2,2-dimethylpropanoate)] are 1 to 3 µM and 1 to 3 µM.
On the same counts, the results for `CCCOC(=O)[C@H](C)NP(=O)(Oc1ccccc1)C(F)c1ccc2ccc(C(=O)N[C@H]3CN(C(=O)c4n[nH]c5ccc(C)cc45)CC[C@H]4CC[C@@H](C(=O)N(C)CCCCCCC#Cc5cccc6c5CN(C5CCC(=O)NC5=O)C6=O)N4C3=O)cc2c1` (stereo partly drawn) [Compound 13, propyl (((7-(((5S,8S,10aR)-8-((8-(2-(2,6-dioxopiperidin-3-yl)-1-oxoisoindolin-4-yl)oct-7-yn-1-yl)(methyl)carbamoyl)-3-(5-methyl-1H-indazole-3-carbonyl)-6-oxodecahydropyrrolo[1,2-a][1,5]diazocin-5-yl)carbamoyl)naphthalen-2-yl)fluoromethyl)(phenoxy)phosphoryl)-L-alaninate] are above 3 µM and above 3 µM.
`CCCC(=O)SCCOP(=O)(OCCSC(=O)CCC)C(F)(F)c1ccc2ccc(C(=O)N[C@H]3CN(C(=O)c4n[nH]c5ccc(C)cc45)CC[C@H]4CC[C@@H](C(=O)N(C)CCCCCCC#Cc5cccc6c5CN(C5CCC(=O)NC5=O)C6=O)N4C3=O)cc2c1` (stereo partly drawn) [Compound 12, S,S′-(((((7-(((5S,8S,10aR)-8-((8-(2-(2,6-dioxopiperidin-3-yl)-1-oxoisoindolin-4-yl)oct-7-yn-1-yl)(methyl)carbamoyl)-3-(5-methyl-1H-indazole-3-carbonyl)-6-oxodecahydropyrrolo[1,2-a][1,5]diazocin-5-yl)carbamoyl)naphthalen-2-yl)difluoromethyl)phosphoryl)bis(oxy))bis(ethane-2,1-diyl)) dibutanethioate]: the IC50 is above 3 µM in assay [1] and below 0.1 µM in assay [2].
Take `CCCC(=O)SCCOP(=O)(OCCSC(=O)CCC)C(F)(F)c1ccc2sc(C(=O)N[C@H]3CN(C(=O)CCCCCC#Cc4cccc5c4CN(C4CCC(=O)NC4=O)C5=O)CC[C@H]4CC[C@@H](C(=O)N5CC(c6cnccc6N(C)C)C5)N4C3=O)cc2c1` (stereo partly drawn) [Compound 38, S,S′-(((((2-(((5S,8S,10aR)-8-(3-(4-(dimethylamino)pyridin-3-yl)azetidine-1-carbonyl)-3-(8-(2-(2,6-dioxopiperidin-3-yl)-1-oxoisoindolin-4-yl)oct-7-ynoyl)-6-oxodecahydropyrrolo[1,2-a][1,5]diazocin-5-yl)carbamoyl)benzo[b]thiophen-5-yl)difluoromethyl)phosphoryl)bis(oxy))bis(ethane-2,1-diyl)) dibutanethioate]: in assay [1], the IC50 is below 0.1 µM.
